Here are results for 54 compounds from paper PMC9995496, “A screen for MeCP2-TBL1 interaction inhibitors using a luminescence-based assay” (Scientific Reports, 2023).

Each structure is given as a SMILES string.

For one test, the target named is T1, MeCP2-TBL1 interaction (MeCP2-SmBiT / TBL1-LgBiT) (Mus musculus, UniProt Q9QXE7).
T1 construct: expressed in transfected cells; crude lysate used as a cell-free assay
T1 sequence (Q9QXE7 166-527): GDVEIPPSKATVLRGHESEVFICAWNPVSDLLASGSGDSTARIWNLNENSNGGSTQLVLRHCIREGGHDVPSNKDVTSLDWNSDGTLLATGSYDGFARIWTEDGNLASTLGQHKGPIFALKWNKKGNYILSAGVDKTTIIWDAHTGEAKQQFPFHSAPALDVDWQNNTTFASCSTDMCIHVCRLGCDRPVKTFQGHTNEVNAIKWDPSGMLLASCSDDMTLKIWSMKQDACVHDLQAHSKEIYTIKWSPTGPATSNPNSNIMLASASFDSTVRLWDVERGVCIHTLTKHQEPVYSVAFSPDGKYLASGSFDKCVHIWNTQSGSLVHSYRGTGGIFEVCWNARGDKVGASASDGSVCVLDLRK
Nature of the test: MeCP2-TBL1 NanoLuc luciferase complementation assay (cell-free, extracts of transfected HEK293 cells).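 Further: each compound tested at 20 µM final concentration.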 In kind it is binding, human. The note with it: primary screen of Asinex library, single well per compound. The gist of the method:
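Cell-free split NanoLuc: lysate of HEK293 cells co-expressing the MeCP2 C-terminal half-SmBiT and TBL1 WD domain-LgBiT, mixed 1:1 with furimazine. After 30 min at room temperature, luminescence was plate-median normalized.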
Turning to `CN(C)C(=O)[C@@H]1C[C@@H](n2cc(C(=O)NCCc3ccccc3)ccc2=O)[C@H](c2ccccc2)N1C` [BDG_34039793], the Inhibition percent came out at 1.80.
The same measure, in the same setting: the same measure for `CC1(C)Oc2ccc(OCc3ccccc3)cc2[C@@H]2O[C@H](CC(=O)O)CC[C@H]21` [BDG_34041764]: 0.20.
As for `O=C(O)CCC(=O)N[C@@H]1C[C@@H](Oc2cccc(C(F)(F)F)c2)[C@H](O)[C@H]1N1CCc2ccccc2C1` [BDG_34049652], the Inhibition percent was -0.28.
On the same count and under the same terms, the same measure for `CN(Cc1ccccc1)[C@@H]1[C@@H](O)[C@H](Oc2cccc(C(F)(F)F)c2)C[C@H]1NC(=O)CCN` [BDG_34056156]: -1.01; for `COc1cccc2c1OC(C)(C)[C@H]1C[C@@H]3[C@H](CCN3CC(=O)O)O[C@H]21` [BDG_34128979]: -2.31.
Consider `O=C1CCCC[C@]2(CN(C(=O)CCCc3cn[nH]c3)C[C@H]2c2ccccc2F)N1` [BDG_34130330], for which the Inhibition percent is reported as -3.21.
Take `CC1(C)Oc2c(cccc2C(F)(F)F)[C@@H]2O[C@@H]3CCN(C(=O)CCCc4cn[nH]c4)[C@@H]3C[C@H]21` [BDG_34130346]: the Inhibition percent is reported as 7.09.
Consider `CC1(C)Oc2c(O)cccc2[C@@H]2O[C@@H]3CCN(C(=O)CCCc4cn[nH]c4)C[C@@H]3C[C@H]21` [BDG_34130377], for which the Inhibition percent is reported as 1.08.
Same read-out and setting: the same measure for `CC(C)(CC(=O)O)CC(=O)N1CC[C@@H]2O[C@@H]3c4cc(Cl)ccc4OC(C)(C)[C@H]3C[C@@H]2C1` [BDG_34130555]: 0.45; for `CC(=O)NCCCCCC(=O)N1CC[C@H]2O[C@H]3c4cc(C(C)(C)C)ccc4OC(C)(C)[C@@H]3C[C@@H]21` [BDG_34131400]: 3.20; for `CC(=O)NCCCCCC(=O)N1C[C@@H](c2ccc(F)cc2)[C@@]2(CCCCC(=O)N2)C1` [BDG_34131511]: 3.80.
With `CCOc1cccc2c1OC(C)(C)[C@@H]1C[C@@H]3[C@@H](CCCN3C(=O)c3cccc(F)c3C(=O)O)O[C@@H]21` [BDG_34132357], the Inhibition percent is -0.29.
Still for that read-out and setting: the same measure for `COc1ccccc1N1[C@H]2CCCN(C(=O)c3cccc(OCC(=O)O)c3)[C@H]2CC1(C)C` [BDG_34133274]: -3.82; for `O=C(O)COc1cccc(C(=O)N2C[C@@H](c3ccccc3F)[C@@]3(CCCCC(=O)N3)C2)c1` [BDG_34133280]: 2.13.
On to `CC1(C)Oc2ccc(Cl)cc2[C@H]2O[C@H]3CCN(C(=O)c4ccccc4OCC(=O)O)C[C@H]3C[C@@H]21` [BDG_34133540], for which the Inhibition percent worked out at 1.43.
Turning to `CC1(C)Oc2c(O)cccc2[C@H]2O[C@H]3CCN(C(=O)c4cccc(Cn5ccnc5)c4)[C@@H]3C[C@@H]21` [BDG_34133876], the Inhibition percent is recorded as 5.67.
`CC1(C)Oc2c(O)cccc2[C@@H]2O[C@@H]3CCN(C(=O)c4cccc(Cn5ccnc5)c4)[C@@H]3C[C@H]21` [BDG_34133887]: the Inhibition percent came to 0.92.
On the same count and under the same terms, the same measure for `CN(Cc1ccccc1)[C@@H]1[C@@H](O)[C@H](Oc2ccccc2F)C[C@H]1NC(=O)CC(C)(C)CC(=O)O` [BDG_34135529]: 1.25.
Same read-out and setting: the same measure for `CN(Cc1ccc(F)cc1)[C@@H]1[C@@H](O)[C@H](Oc2ccccc2F)C[C@H]1NC(=O)CC(C)(C)CC(=O)O` [BDG_34135530]: 5.96; for `CN(Cc1ccc(F)cc1)[C@@H]1[C@@H](O)[C@H](Oc2cccc(F)c2)C[C@H]1NC(=O)c1cccc(C(=O)O)c1` [BDG_34135616]: 1.33; for `CC1(C)Oc2ccc(C(=O)O)cc2[C@H]2O[C@H]3CCSC[C@H]3C[C@@H]21` [BDG_51128812]: -0.06.
Still for that read-out and setting: the same measure for `Cc1nc(Nc2ncc(C#N)s2)ccc1CC1COCCN(S(C)(=O)=O)C1` (stereo not drawn) [BDG_51128826]: -0.16; for `CC(=O)c1ccc(NC(=O)CN2CCC[C@@H]3O[C@@H]4c5cc(Cl)ccc5OC(C)(C)[C@H]4C[C@@H]32)cc1` [BDG_51129056]: -1.84.
In the case of `COc1cccc2c1OC(C)(C)[C@@H]1C[C@H]3CN(CC(=O)Nc4ccc(C(C)=O)cc4)CC[C@H]3O[C@@H]21` [BDG_51129062], the Inhibition percent turned out to be 4.58.
Same read-out and setting: the same measure for `C[C@]12C[C@@H](Cc3ccccc3)N(C(=O)c3cccc(Cn4cccn4)c3)[C@H]1CCCC(=O)N2` [BDH_24639058]: -1.63; for `Cc1c(NC(=O)CN2[C@H](Cc3ccccc3)C[C@]3(C)NC(=O)CCC[C@H]23)cnn1C` [BDH_24639966]: 0.23.
Regarding `O=C1CCCC[C@]2(CN(C(=O)CCc3ccc(F)cc3)C[C@H]2c2ccccc2)N1` [BDH_32219010], the Inhibition percent is recorded as -1.17.
For the compound `C[C@]12C[C@@H](c3ccccc3)N(CC(=O)N3CC(=O)Nc4ccccc43)[C@H]1CCCCCN2` [BDH_32250993], the Inhibition percent was 1.88.

The same test, now with this note: primary screen of the Asinex library, sheet "Sargen output Asinex library", one well per compound.
On to `COc1cccc2c1OC(C)(C)[C@H]1CC[C@H](C3CCN(C(=O)CCCC(=O)O)CC3)O[C@H]21` [BDG_34129516], for which the Inhibition percent is -0.90%.
The same measure, in the same setting: the same measure for `CC1(C)Oc2ccccc2[C@H]2O[C@H]3CCN(C(=O)c4cccc(OCC(=O)O)c4)C[C@@H]3C[C@@H]21` [BDG_34133285]: 2.74%.
Same read-out and setting: the same measure for `CC1(C)Oc2c(O)cccc2[C@H]2O[C@H]3CCN(CC(=O)N4CC(=O)Nc5ccccc54)[C@@H]3C[C@@H]21` [BDG_34134040]: 2.67%; for `CN(Cc1ccccc1)[C@@H]1[C@@H](O)[C@H](Oc2ccc(F)c(F)c2)C[C@H]1NC(=O)CC(C)(C)CC(=O)O` [BDG_34135525]: 1.42%; for `Cc1cc(C)n(-c2cccc(C(=O)N3C[C@@H](c4ccccc4)[C@@]4(CCCCC(=O)N4)C3)c2)n1` [BDH_20395756]: -4.76%.
On to `Clc1cccc(Cc2cncc(C3CCCN3Cc3ccnc(N4CCOCC4)n3)n2)c1` (stereo not drawn) [BDH_27227771], for which the Inhibition percent is 3.31%.
For the compound `O=C(N1CCC2(CC1)COC(Cc1cccc(F)c1)C2)C1(c2cccc(F)c2)CCOCC1` (stereo not drawn) [BDH_32247901], the Inhibition percent amounted to 0.54%.
Turning to `CC(=O)N[C@@]12CN(CC(=O)Nc3cccc4c3CCCC4)CC[C@@H]1[C@@H](c1ccccc1)N(C)C2` [BDH_32251192], the Inhibition percent stood at 4.01%.

The test is the same for the next values; noted with them: primary screen of the Asinex library, sheet "Sargen output Asinex library", one well per compound, Batch Ref. 1.
`Cc1cc(O[C@@H]2C[C@@H](NC(=O)CCC(=O)O)[C@H](N3CCc4ccccc4C3)[C@H]2O)cc(C(C)C)c1` [BDG_34049574]: the Inhibition percent was determined as 0.88%.
`O=C(O)CCC(=O)N[C@@H]1C[C@@H](Oc2cccc(Cl)c2)[C@H](O)[C@H]1N1CCc2ccccc2C1` [BDG_34049608]: the Inhibition percent was -0.68%.
Take `O=C(O)c1cc(F)ccc1Oc1ccccc1` [BDG_34062401]: the Inhibition percent is -1.72%.
Consider `CC1(C)Oc2cc(OCCCNS(C)(=O)=O)ccc2[C@@H]2O[C@H](CCc3ccc(F)cc3)CC[C@H]21` [BDG_34121335], for which the Inhibition percent is given as 5.43%.
Regarding `CC1(Cc2ccc(F)cc2)Cc2cc(C(=O)N(CCCc3ccc(Cl)cc3)CC(=O)O)ccc2O1` (stereo not drawn) [BDG_34127624], the Inhibition percent came out at 0.89%.
For the compound `COc1cccc2c1OC(C)(C)[C@H]1CC[C@H](C3CCN(CC(=O)O)CC3)O[C@H]21` [BDG_34129039], the Inhibition percent is on record as -1.85%.
With `CC1(C)Oc2cc(O)ccc2[C@@H]2O[C@@H]3CCCN(C(=O)CCCC(=O)O)[C@@H]3C[C@H]21` [BDG_34129513], the Inhibition percent is 5.44%.
`CN(C)CCOc1cccc2c1OC(C)(C)[C@H]1C[C@H]3CN(C(=O)CCCC(=O)O)CC[C@@H]3O[C@H]21` [BDG_34129529]: the Inhibition percent was 0.07%.
The same measure, in the same setting: the same measure for `CC1(C)C[C@H]2[C@H](CCCN2C(=O)CCCc2cn[nH]c2)N1c1cccc(C(F)(F)F)c1` [BDG_34130326]: 14.87%.
Turning to `CC1(C)Oc2ccc(O)cc2[C@H]2O[C@H]3CCN(C(=O)c4cccc(OCC(=O)O)c4)[C@@H]3C[C@@H]21` [BDG_34133313], the Inhibition percent is listed as -2.82%.
As to `CC1(C)Oc2ccccc2[C@@H]2O[C@@H]3CCN(C(=O)c4cccc(Cn5ccnc5)c4)C[C@@H]3C[C@H]21` [BDG_34133919], the Inhibition percent came out at 1.73%.
As for `CC1(C)Oc2ccc(Cl)cc2[C@H]2O[C@H]3CCN(CC(=O)N4CC(=O)Nc5ccccc54)C[C@@H]3C[C@@H]21` [BDG_34134010], the Inhibition percent stood at 2.78%.
In the case of `CC1(C)Oc2ccc(Cl)cc2[C@@H]2O[C@@H]3CCN(CC(=O)N4CC(=O)Nc5ccccc54)C[C@@H]3C[C@H]21` [BDG_34134082], the Inhibition percent is recorded as 3.72%.
Take `Cc1cc(O[C@@H]2C[C@@H](NC(=O)CCCC(=O)O)[C@H](N3CCc4ccccc4C3)[C@H]2O)cc(C(C)C)c1` [BDG_34135452]: the Inhibition percent is on record as -0.70%.
`O=C(O)CCCC(=O)N[C@@H]1C[C@@H](Oc2cccc(Cl)c2)[C@H](O)[C@H]1N1CCc2ccccc2C1` [BDG_34135462]: the Inhibition percent was -0.65%.
As to `COC(=O)c1ccc(NC(=O)c2cccc(Br)c2OCC(=O)O)cc1` [BDG_51125744], the Inhibition percent was 7.09%.
With `Cc1c(F)cccc1NC(=O)CN1[C@H](Cc2ccccc2)C[C@]2(C)NC(=O)CCC[C@H]12` [BDH_24639961], the Inhibition percent came to 0.80%.
Consider `Cc1cc(C)nc(NCCC(=O)N2[C@H](Cc3ccccc3)C[C@]3(C)NC(=O)CCC[C@H]23)n1` [BDH_24639981], for which the Inhibition percent is on record as -1.66%.
